Reference: patent publication US20080045514A1 (Cytovia, Inc., priority 2006, published 2008)

Experiments:
Format in all cases: cell-based
[1] = tested on: human breast cancer cell line T-47D; experiment: Caspase cascade activation (EC50), T-47D; conditions: Homo sapiens; T47D cells; caspase cascade activation; read-out: caspase potency (EC50) T47D
Outline: (§1)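 Cells were resuspended at 0.65×10^6 cells/mL in medium + 10% FCS and exposed to test compound at 0.016 to 10 μM final for 48 h at 37 °C. Caspase activity was then read as fluorescence (ex 485/em 530 nm) from DEVD-R110 substrate with lysolecithin in PIPES pH 7.2, 3 h at room temperature.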

[2] = tested on: human hepatocellular carcinoma cell line SNU398; experiment: Caspase cascade activation (EC50), SNU398; conditions: Homo sapiens, SNU-398; SNU398 cells; caspase cascade activation; read-out: caspase potency (EC50) SNU398
Outline: as §1

[3] = tested on: human colon carcinoma cell line HCT116; experiment: Caspase cascade activation (EC50), HCT116; conditions: Homo sapiens, HCT-116; HCT116 cells; caspase cascade activation; read-out: caspase potency (EC50) HCT116
Outline: as §1

[4] = tested on: human Burkitt's lymphoma cell line Namalwa; experiment: Caspase cascade activation (EC50), Namalwa; conditions: Homo sapiens, Burkitts lymphoma cell; Namalwa cells; caspase cascade activation; read-out: caspase potency (EC50) Namalwa
Outline: as §1

[5] = tested on: human breast cancer cell line T-47D; experiment: Inhibition of cell proliferation (GI50), T47D; conditions: Homo sapiens; T47D cells, 48 h, CellTiter-Glo
Method: (§2) Human breast cancer cell lines T-47D, human hepatocellular carcinoma cell line SNU398, human colon carcinoma cell line HCT116, human lung cancer cell line H1299, human leukemia cell line K562, human lymphoma cell line Raji, human B cell lymphoblastoid cell line Ramos, and human Burkitt's lymphoma cell line Namalwa were grown and harvested as in Example 100. An aliquot of […] of cells (4.4×10^4 cells/mL) was added to a well of a 96-well microtiter plate containing 5 μL of a 10% DMSO in RPMI-1640 media solution containing 10 nM to 100 μM of 3-(2-chlorophenyl)-6-(3,4-methylenedioxyphenyl)-7H-[1,2,4]triazolo[3,4-b][1,3,4]thiadiazine (1 nM to 10 μM final). An aliquot of 45 μL of cells was added to a well of a 96-well microtiter plate containing 5 μL of a 10% DMSO in RPMI-1640 media solution without compound as the control sample for maximal cell proliferation (LMax). The samples were mixed by agitation and then incubated at 37° C. for 48 h in a 5% CO2-95% humidity incubator. After incubation, the samples were removed from the incubator and 25 μL of CellTiter-Glo™ reagent (Promega) was added. The samples were mixed by agitation and incubated at room temperature for 10-15 min. Plates were then read using a luminescent plate reader (Model SPECTRAfluor Plus, Tecan) to give Ltest values.
(§3) The samples were mixed by agitation and then incubated at 37° C. for 0.5 h in a 5% CO2-95% humidity incubator. After incubation, the samples were removed from the incubator and 25 μL of CellTiter-Glo™ reagent (Promega) was added. The samples were mixed by agitation and incubated at […] 10-15 min at room temperature in a 5% CO2-95% humidity incubator. Fluorescence was read as above, (LStart) defining luminescence for initial cell number used as baseline in GI50 determinations.
(§4) Calculation: GI50 (dose for 50% inhibition of cell proliferation) is the concentration where [(Ltest−LStart)/(LMax−LStart)]=0.5.

[6] = tested on: human hepatocellular carcinoma cell line SNU398; experiment: Inhibition of cell proliferation (GI50), SNU398; conditions: Homo sapiens; SNU 398 cells, 48 h, CellTiter-Glo
Method: as §2, §3, §4

[7] = tested on: human colon carcinoma cell line HCT116; experiment: Inhibition of cell proliferation (GI50), HCT116; conditions: Homo sapiens; HCT 116 cells, 48 h, CellTiter-Glo
Outline: (§5)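 Proliferation was measured by luminescent ATP assay after cells were incubated with compound for 48 h at 37 °C. GI50 was derived as the concentration giving half the growth seen in drug-free wells, after subtracting the signal recorded 0.5 h post-seeding.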

[8] = tested on: human Burkitt's lymphoma cell line Namalwa; experiment: Inhibition of cell proliferation (GI50), Namalwa; conditions: Homo sapiens, Burkitts lymphoma cell; Namalwa cells, 48 h, CellTiter-Glo
Outline: as §5

| Compound | EC50 [1] [µM] | EC50 [2] [µM] | EC50 [3] [µM] | EC50 [4] [µM] | GI50 [5] [nM] | GI50 [6] [nM] | GI50 [7] [nM] | GI50 [8] [nM] |
| --- | --- | --- | --- | --- | --- | --- | --- | --- |
| COc1ccccc1-c1nnc2n1N=C(c1ccc(C(F)(F)F)cc1)CS2 [Example 48, 6-(4-(Trifluoromethyl)phenyl)-3-(2-methoxyphenyl)-7H-[1,2,4]triazolo[3,4-b][1,3,4]thiadiazine] | 0.545 | 0.511 | 0.569 | 0.48 | 690 | 120 | 324 | 452 |
| COc1cc(C)ccc1C1=Nn2c(nnc2-c2ccccc2OC)SC1 [Example 41, 6-(2-Methoxy-4-methylphenyl)-3-(2-methoxyphenyl)-7H-[1,2,4]triazolo[3,4-b][1,3,4]thiadiazine] | 0.422 | 0.18 | 0.289 | 0.182 | 261 | 117 | 1270 | 208 |
| COc1ccc(C2=Nn3c(nnc3-c3ccccc3OC)SC2)cc1 [Example 46, 3-(2-Methoxyphenyl)-6-(4-methoxyphenyl)-7H-[1,2,4]triazolo[3,4-b][1,3,4]thiadiazine] | 0.043 | 0.017 | 0.019 | 0.011 | 12 | 10 | 8 | 13 |
| COc1cc(-c2nnc3n2N=C(c2ccc(N)cc2)CS3)cc(OC)c1OC [Example 66, 6-(4-Aminophenyl)-3-(3,4,5-trimethoxyphenyl)-7H-[1,2,4]triazolo[3,4-b][1,3,4]thiadiazine] | 0.072 | 0.021 | 0.029 | 0.016 | 47 | 24 | 127 | 43 |
| COc1ccccc1-c1nnc2n1N=C(c1ccc(C)c(N)c1)CS2 [Example 58, 6-(3-Amino-4-methylphenyl)-3-(2-methoxyphenyl)-7H-[1,2,4]triazolo[3,4-b][1,3,4]thiadiazine] | 0.076 | 0.032 | 0.054 | 0.03 | 26 | 24 | 52 | 25 |
| COc1cccc(C2=Nn3c(nnc3-c3ccccc3OC)SC2)c1 [Example 63, 3-(2-Methoxyphenyl)-6-(3-methoxylphenyl)-7H-[1,2,4]triazolo[3,4-b][1,3,4]thiadiazine] | 0.261 | 0.146 | 0.277 | 0.128 | 371 | 119 | 300 | 232 |
| COc1ccccc1-c1nnc2n1N=C(c1ccc(OC)c(OC)c1OC)CS2 [Example 42, 6-(2,3,4-Trimethoxyphenyl)-3-(2-methoxyphenyl)-7H-[1,2,4]triazolo[3,4-b][1,3,4]thiadiazine] | 0.335 | 0.488 | 0.753 | 0.316 | 288 | 121 | 482 | 433 |
| COc1cccc(-c2nnc3n2N=C(c2ccc(C)cc2)CS3)c1OC [Example 65, 3-(2,3-Dimethoxyphenyl)-6-(4-methylphenyl)-7H-[1,2,4]triazolo[3,4-b][1,3,4]thiadiazine] | 0.61 | 0.522 | 0.635 | 0.561 | 1510 | 204 | 4680 | 1230 |
| Cc1ccc(C2=Nn3c(nnc3-c3ccccc3C)SC2)cc1N [Example 61, 6-(3-Amino-4-methylphenyl)-3-(2-methylphenyl)-7H-[1,2,4]triazolo[3,4-b][1,3,4]thiadiazine] | 0.33 | 0.109 | 0.137 | 0.071 | 269 | 228 | 400 | 150 |

Second part, the molecule after the results:

| EC50 [1] [µM] | EC50 [2] [µM] | EC50 [3] [µM] | EC50 [4] [µM] | GI50 [5] [nM] | GI50 [6] [nM] | GI50 [7] [nM] | GI50 [8] [nM] | Compound |
| --- | --- | --- | --- | --- | --- | --- | --- | --- |
| 0.188 | 0.117 | 0.204 | 0.115 | 297 | 115 | 300 | 170 | COc1ccccc1-c1nnc2n1N=C(c1ccc(NC(C)C)cc1)CS2 [Example 80, 6-(4-Isopropylaminophenyl)-3-(2-methoxyphenyl)-7H-[1,2,4]triazolo[3,4-b][1,3,4]thiadiazine] |
| 0.528 | 0.148 | 0.13 | 0.125 | 498 | 154 | 911 | 150 | CNc1ccccc1-c1nnc2n1N=C(c1ccc(C)cc1)CS2 [Example 84, 3-(2-Methylaminophenyl)-6-(4-methylphenyl)-7H-[1,2,4]triazolo[3,4-b][1,3,4]thiadiazine] |
| 0.27 | 0.039 | 0.067 | 0.055 | 255 | 21 | 79 | 18 | Cc1ccc(C2=Nn3c(nnc3-c3ccc(Cl)cc3C)SC2)cc1 [Example 81, 3-(4-Chloro-2-methylphenyl)-6-(4-methylphenyl)-7H-[1,2,4]triazolo[3,4-b][1,3,4]thiadiazine] |
| 5.26 | 0.636 | 1.26 | 0.481 | 2760 | 144 | 947 | 269 | Cc1ccc(C2=Nn3c(nnc3-c3ccccc3F)SC2)cc1 [Example 68, 3-(2-Fluorophenyl)-6-(4-methylphenyl)-7H-[1,2,4]triazolo[3,4-b][1,3,4]thiadiazine] |
| 0.018 | 0.014 | 0.011 | 0.007 | 5 | 2 | 12 | 5 | COc1ccccc1-c1nnc2n1N=C(c1ccc(N(C)C)cc1)CS2 [Example 77, 6-(4-dimethylaminophenyl)-3-(2-methoxyphenyl)-7H-[1,2,4]triazolo[3,4-b][1,3,4]thiadiazine] |
| 0.093 | 0.054 | 0.072 | 0.062 | 34 | 23 | 109 | 55 | COc1ccccc1-c1nnc2n1N=C(c1ccc(N=[N+]=[N-])cc1)CS2 [Example 76, 6-(4-Azidophenyl)-3-(2-methoxyphenyl)-7H-[1,2,4]triazolo[3,4-b][1,3,4]thiadiazine] |
| 0.238 | 0.203 | 0.266 | 0.136 | 345 | 180 | 867 | 179 | COc1ccccc1-c1nnc2n1N=C(c1ccc(N)cc1)CS2 [Example 75, 6-(4-Aminophenyl)-3-(2-methoxyphenyl)-7H-[1,2,4]triazolo[3,4-b][1,3,4]thiadiazine] |
| 0.453 | 0.07 | 0.076 | 0.065 | 276 | 91 | 169 | 77 | CSc1ccccc1-c1nnc2n1N=C(c1ccc(C)cc1)CS2 [Example 71, 3-(2-Methylthiophenyl)-6-(4-methylphenyl)-7H-[1,2,4]triazolo[3,4-b][1,3,4]thiadiazine] |
